# Source: patent publication US20240226318A1, “ANTIBODY DRUG CONJUGATE TARGETING NECTIN 4 AND PREPARATION METHOD THEREFOR AND USE THEREOF” (JIANGSU MABWELL HEALTH PHARMACEUTICAL R&D CO., LTD., priority 2021, published 2024)
# Columns and labels:
# [1] = target: Nectin-4 on stably transfected PC-3-Nectin4(2-4) cells (UniProt Q96NY8); assay: cell-based or functional assay
# FcRn [2] = target: T1, FcRn (Homo sapiens, UniProt P55899); assay: BIAcore (SPR), FcRn captured on His capture chip, pH 6.0, ADC injected
# human FcγR I (CD64) [3] = target: T2, human FcγR I (CD64) (Homo sapiens, UniProt P12314); assay: BIAcore (SPR), Fc receptor captured on His capture chip, pH 7.4, ADC injected
# [4] = target: human FcγR IIa (human CD32a (H167)) (human) (UniProt P12318); assay: as above
# [5] = target: human FcγR IIb (human CD32b) (human) (UniProt P31994); assay: as above
# [6] = target: Nectin-4 on stably transfected PC-3-Nectin4(2-4) cells (UniProt Q96NY8); assay: flow cytometry on PC-3-Nectin4(2-4) cells, 2 h at 4° C., anti-human IgG Fc-FITC
# [7] = target: recombinant extra-cellular domain of human Nectin-4 protein (human) (UniProt Q96NY8); assay: BIAcore (SPR), ADC captured on chip, human Nectin-4 protein injected at 0.391-50 nM
# MDA-MB-468 cells = assay: In vivo efficacy, breast cancer animal model MDA-MB-468 (Group 4 Example 1); parameters: species or system Nude mice (BALB/cJGpt-Foxn1nu/Gpt); conditions: MDA-MB-468 model; for TV(D0): D0 baseline; for PR (D21), partial tumor regression: 8 animals per group
# Description: (§1) MIDA-MB-468 cells, i.e. human breast carcinoma cells (purchased from ATCC), NCI-H322 cells, i.e. lung cancer cells (purchased from ATCC), and T24/nectin-4, i.e. bladder cancer cells (available from the cell bank of the Chinese Academy of Science) were utilized respectively to inoculate Nude mice (BALB/cJGpt-Foxn1nu/Gpt, 4-5 weeks old) for establishing mouse models.
# (§2) The antibody-drug conjugate 3d and the control drug PADCVE (Enfortumab Vedotin, purchased from Seattle Gentics) were grouped and studied (as shown in Table 9 below). The mice were intravenously injected (IV) in a volume of 10 mL/kg, respectively; and the mice of the vehicle group were intravenously injected the same volume of vehicle (physiological saline). Tumor volumes were measured 2 times per week, and the mice were weighed and the data was recorded.
# (§3) When the experiment was finished, the experimental endpoint was reached, or if the tumor volume reached 1500 mm^3, the animals were sacrificed under CO2 anesthesia and the tumors were dissected and photographed.
# (§4) The method for evaluating in vivo efficacy was the same as described in Section 3.3 in the Group 3 of Examples.
# A mouse model was established using MDA-MB-468 cells and ADCs 3d and PADCVE were grouped and studied, as described in sections 4.1 and 4.2 in the present Group 4 of Examples.
# NCI-H322 cells = assay: In vivo efficacy, lung cancer animal model NCI-H322; parameters: species or system Nude mice (BALB/cJGpt-Foxn1nu/Gpt)
# Description: as §1, §2, §3, §4
# A mouse model was established using NCI-H322 cells and ADCs 3d and PADCVE were grouped and studied, as described in sections 4.1 and 4.2 in the present Group 4 of Examples.
# T24/nectin-4 cells = assay: In vivo efficacy, bladder cancer animal model T24/nectin-4; parameters: species or system Nude mice (BALB/cJGpt-Foxn1nu/Gpt); conditions: T24/nectin-4 model; for Average weight (g) at the beginning / Average weight (g) at the end: mouse body weight
# Description: as §1, §2, §3, §4
# A mouse model was established using T24/nectin-4 cells and ADCs 3d and PADCVE were grouped and studied, as described in sections 4.1 and 4.2 in the present Group 4 of Examples.
# [8] = target: T3, recombinant extra-cellular domain of human Nectin-4 protein (Homo sapiens, UniProt Q96NY8); assay: BIAcore affinity for the antigen; format: binding; conditions: human Nectin-4, pH 7.4
# T3 construct: recombinant extra-cellular domain of human Nectin-4 protein; purchased Novoprotein Scientific Inc
# T3 sequence (Q96NY8 32-349 limits assumed): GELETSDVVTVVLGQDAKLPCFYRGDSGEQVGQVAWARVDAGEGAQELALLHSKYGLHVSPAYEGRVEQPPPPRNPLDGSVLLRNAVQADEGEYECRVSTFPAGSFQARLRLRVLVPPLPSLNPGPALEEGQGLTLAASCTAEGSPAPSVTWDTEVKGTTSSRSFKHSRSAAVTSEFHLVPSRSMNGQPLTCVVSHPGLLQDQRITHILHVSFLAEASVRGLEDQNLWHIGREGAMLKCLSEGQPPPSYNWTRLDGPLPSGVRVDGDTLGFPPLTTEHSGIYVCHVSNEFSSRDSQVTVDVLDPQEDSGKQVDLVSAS
# Description: Human Nectin-4 protein (purchased from Novoprotein Scientific Inc.) was subjected to buffer exchange with a desalting column using running reagent 1 (10 mM N-(2-hydroxyethyl)piperazine-N-2 sulfonic acid, 150 mM sodium chloride, 3 mM ethylene diamine tetraacetic acid, 0.005% Tween-20, with pH adjusted to 7.4). Samples to be detected were diluted to 5 μg/mL with the running reagent 1, and sequentially injected to the experimental channels with His capture chips at a flow rate of […] for about 400 RU. The capture of the ligand was not required for the reference channel. The human Nectin-4 protein was diluted to 50, 25, 12.5, 6.25, 3.125, 1.563, 0.781, 0.391, and 0 nM with the corresponding running reagent, and then the diluted human Nectin-4 protein was injected into the experimental channels and the reference channel at a flow rate of 30 μL/min. The association and dissociation time were 120 sec and 300 sec, respectively. The Biocore 8K analysis software was used to calculate KD values for each antibody. The reference channel was used for background subtraction.
# FcRn [9] = target: T1, FcRn; assay: BIAcore affinity for Fc receptor FcRn; format: binding; conditions: pH 6.0
# Description: (§5) Human FcγR I (CD64), FcγR IIa (CD32a (H167)), FcγR IIb (CD32b), and FcγR IIIa (CD16a (V176)) proteins were diluted to 0.25 μg/mL with running reagent 1 (10 mM N-(2-hydroxyethyl)piperazine-N-2 sulfonic acid, 150 mM sodium chloride, 3 mM ethylene diamine tetraacetic acid, 0.005% Tween-20, with pH adjusted to 7.4), and FcRn protein was diluted to 0.25 μg/mL with running reagent 2 (2 mM sodium dihydrogen phosphate, 10 mM disodium hydrogen phosphate, 137 mM sodium chloride, 2.7 mM potassium chloride, 0.05% tween-20, with pH adjusted to 6.0) and all the diluted proteins were sequentially injected to the experimental channels with His capture chips (FC2) at a flow rate of […] for about 40 RU. The capture of the ligands was not required for the reference channel (FC1). Samples to be detected were diluted with corresponding running reagents, and then were injected into the experimental channels and the reference channel at a flow rate of 30 μL/min. Association and dissociation was monitored for certain time periods. The Biocore 8K analysis software was used to calculate KD values for each antibody. The reference channel (FC1) was used for background subtraction.
# human FcγR I (CD64) [10] = target: T2, human FcγR I (CD64); assay: BIAcore affinity for Fc receptor FcγRI; format: binding; conditions: pH 7.4
# Description: as §5
# [11] = target: T4, human FcγR IIa (human CD32a (H167)) (Homo sapiens, UniProt P12318); assay: BIAcore affinity for Fc receptor FcγRIIa; format: binding; conditions: pH 7.4
# T4 sequence (P12318 36-218 limits assumed): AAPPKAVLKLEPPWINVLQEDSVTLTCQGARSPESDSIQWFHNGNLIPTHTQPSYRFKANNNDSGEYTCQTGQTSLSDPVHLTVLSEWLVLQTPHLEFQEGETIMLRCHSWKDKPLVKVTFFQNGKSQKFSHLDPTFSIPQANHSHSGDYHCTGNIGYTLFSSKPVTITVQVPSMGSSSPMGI
# Description: as §5
# [12] = target: T5, human FcγR IIb (human CD32b) (Homo sapiens, UniProt P31994); assay: BIAcore affinity for Fc receptor FcγRIIb; format: binding; conditions: pH 7.4
# T5 sequence (P31994 43-310): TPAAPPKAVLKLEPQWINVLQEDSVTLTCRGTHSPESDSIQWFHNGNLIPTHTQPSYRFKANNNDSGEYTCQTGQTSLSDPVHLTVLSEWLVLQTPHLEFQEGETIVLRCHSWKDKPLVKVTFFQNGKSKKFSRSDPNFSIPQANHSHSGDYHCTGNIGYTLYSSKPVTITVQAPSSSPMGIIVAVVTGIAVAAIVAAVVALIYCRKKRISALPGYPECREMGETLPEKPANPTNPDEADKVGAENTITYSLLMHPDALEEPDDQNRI
# Description: as §5
# PC-3-Nectin4(2-4) cells = assay: Internalization activity, flow cytometry; format: cell-based
# Description: Experiment method was as follows: the target cells at the logarithmic stage of growth were harvested by centrifugation, adjusted to a density of 5×10^5 cells/mL in complete medium (F-12K medium containing 10% FBS and 250 μg/ml G418). 1 mL of the cell suspension obtained was pipetted into EP tubes, i.e., 5×10^5 cells in each, which were then centrifuged. The supernatant was discarded and the cells were washed twice with PBS. […] (as the control group) and 37° C. (as the experiment groups) respectively. After incubation for 2 h, a fluorescently labeled secondary antibody, goat anti human IgG Fc-FITC (purchased from Sigma) was added and incubated for 1 h at 4° C. After the incubation, the fluorescence intensity was measured with a flow cytometer, and the internalization efficiency of each of the samples was calculated by the formula as follows: percent internalization at the time point tx=(1−the fluorescence intensity of the sample at 37° C./the fluorescence intensity of the sample at 4° C.)×100% (tx is the incubation time period x of the sample with the cells).
# [13] = cited from earlier work
substance,measurement,setting,value
"PADCEV (Enfortumab Vedotin, purchased from Seattle Genetics) (antibody)","Fluorescence intensity at 37° C. (Average), surface antibody left after internalization",[1],33100
same,"Fluorescence intensity at 37° C. (Median), surface antibody left after internalization",[1],25000
same,Kd,FcRn [2],513 nM
same,Kd,human FcγR I (CD64) [3],12.3 nM
same,Kd,[4],2770 nM
same,Kd,[5],16300 nM
same,fluorescence intensity at 4° C. (Average),[6],84000
same,fluorescence intensity at 4° C. (Median),[6],78900
same,Kd,[7],4.87 nM
PADCEV,TV(D0),MDA-MB-468 cells; 3 mg/kg IV at D0,133.1 mm^3
same,T/C (%) (D21),MDA-MB-468 cells; 3 mg/kg IV at D0,63%
same,TGI % (D21),MDA-MB-468 cells; 3 mg/kg IV at D0,37%
same,TV(D21),MDA-MB-468 cells; 3 mg/kg IV at D0,516.4 mm^3
same,"PR (D21), partial tumor regression",MDA-MB-468 cells; 3 mg/kg IV at D0,0
same,TV(D0),MDA-MB-468 cells; 10 mg/kg IV at D0,139.5 mm^3
same,T/C (%) (D21),MDA-MB-468 cells; 10 mg/kg IV at D0,28%
same,TGI % (D21),MDA-MB-468 cells; 10 mg/kg IV at D0,72%
same,TV(D21),MDA-MB-468 cells; 10 mg/kg IV at D0,309.5 mm^3
same,"PR (D21), partial tumor regression",MDA-MB-468 cells; 10 mg/kg IV at D0,0
same,TV(D0),"NCI-H322 cells; 3 mg/kg IV at D0, D0 baseline",125.1 mm^3
same,T/C (%) (D21),"NCI-H322 cells; 3 mg/kg IV at D0, D21",36%
same,TGI % (D21),"NCI-H322 cells; 3 mg/kg IV at D0, D21",64%
same,TV(D21),"NCI-H322 cells; 3 mg/kg IV at D0, D21",325.9 mm^3
same,"PR (D21), partial tumor regression","NCI-H322 cells; 3 mg/kg IV at D0, D21, 8 animals per group",0
same,TV(D0),"NCI-H322 cells; 10 mg/kg IV at D0, D0 baseline",124.1 mm^3
same,T/C (%) (D21),"NCI-H322 cells; 10 mg/kg IV at D0, D21",−23%
same,TGI % (D21),"NCI-H322 cells; 10 mg/kg IV at D0, D21",123%
same,TV(D21),"NCI-H322 cells; 10 mg/kg IV at D0, D21",95.9 mm^3
same,"PR (D21), partial tumor regression","NCI-H322 cells; 10 mg/kg IV at D0, D21, 8 animals per group",7
same,Average tumor weight (g) (D22),T24/nectin-4 cells; 3 mg/kg IV at D0,0.23 g
same,TGI (%) (D22),T24/nectin-4 cells; 3 mg/kg IV at D0,90.7%
same,Average weight (g) at the beginning,T24/nectin-4 cells; 3 mg/kg IV at D0,22.0 g
same,Average weight (g) at the end,T24/nectin-4 cells; 3 mg/kg IV at D0,23.0 g
same,Average tumor weight (g) (D22),T24/nectin-4 cells; 10 mg/kg IV at D0,0.09 g
same,TGI (%) (D22),T24/nectin-4 cells; 10 mg/kg IV at D0,96.3%
same,Average weight (g) at the beginning,T24/nectin-4 cells; 10 mg/kg IV at D0,22.0 g
same,Average weight (g) at the end,T24/nectin-4 cells; 10 mg/kg IV at D0,23.3 g
same,Kd,[8],4.87 nM
same,ka,[8],1.05e+06 M⁻¹ s⁻¹
same,kd,[8],0.00512 s⁻¹
same,Kd,FcRn [9],513 nM
same,Kd,human FcγR I (CD64) [10],12.3 nM
same,Kd,[11],2770 nM
same,Kd,[12],16300 nM
same,Average fluorescence intensity 4° C.,"PC-3-Nectin4(2-4) cells; 2 h at 4° C. (control group), average",83966
same,Median fluorescence intensity 4° C.,"PC-3-Nectin4(2-4) cells; 2 h at 4° C. (control group), median",78925
same,Average fluorescence intensity 37° C.,"PC-3-Nectin4(2-4) cells; 2 h at 37° C., average",33129
same,Median fluorescence intensity 37° C.,"PC-3-Nectin4(2-4) cells; 2 h at 37° C., median",25038
same,adverse reactions accompanying treatment,[13]; clinical studies,"fever, skin itching, peripheral neuropathy, dry eyes, neutrocytopenia"
same,medium overall survival,[13]; patients receiving chemotherapy and PD-1/PD-L1 inhibitor regimens,12.9 months
same,overall survival longer than chemotherapy control group,[13]; versus patients receiving chemotherapy in the control group,3.9 months
